# According to patent US5858327A, “Hydrazino-type N2 S2 radionuclide chelating compounds” (Resolutions Pharmaceuticals, Inc., priority 1996, dated 1999):
# Counter-ions that a name gives are not always drawn.
# Test: In vivo distribution of 99mTc-labelled chelators in rats
# Design: species or system male Wistar rats
# Conditions: for GI tract accumulation/localization (share of the dose) / dose remaining in the blood / accumulation in the kidney / localization in urine: male Wistar rats; for GI tract accumulation/localization (share of the dose): 99mTc-labelled chelator 200 μL (200 μCi) i.v. tail vein, organs counted after 120 min images; for dose remaining in the blood / accumulation in the kidney / localization in urine: 99mTc-labelled chelator i.v. tail vein; for dose remaining in the blood: after 120 min images, blood volume assumed 8% body weight; for accumulation in the kidney: examples 1 and 2 approximately equal
# Method: Approximately 1 mg of each chelator was dissolved in 200 μL saline or 200 μL ethanol:water (1:1) in a tube. To the tube was added 100-300 μL sodium ^99m Tc-pertechnetate (5-15 mCi), 100 μL phosphate buffer (0.25M, pH 7.4), and 200 μL of a solution containing 50 μg stannous chloride dihydrate and 40 mg sodium tartrate dihydrate. The tube was capped tightly and placed in a boiling water bath for 10 minutes.
# After cooling, the reaction mixture was loaded onto a C-18 solid-phase extraction cartridge (Sep-Pak) which had been activated with 5 mL methanol and 5 mL 1 mM HCl. The cartridge was washed with 5 mM HCl and the eluate was collected in a test tube. The cartridge was then dried by forcing air through it. The product was eluted with 2 mL ethanol:water (1:1) and collected in a separate tube. The cartridge was placed in another tube and the three tubes were assayed in a radionuclide dose calibrator (ionization chamber). The yield was calculated as the activity in the ethanol:water eluate divided by the total activity in the three tubes under the assumption that the desired product was relatively lipophilic. A less lipophilic chelator would elute partially in the acid wash and the apparent yield would be low.
# Distribution within rats of selected chelators and a reference chelator were determined using established protocols. Briefly, male Wistar rats (Charles River, 200 g) were anaesthetized with somnitol (40 to 50 mg/kg) and 200 μL of the labelled chelator (ie. 200 μCi) was injected intravenously via the tail vein. Serial whole-body scintigrams were acquired for first 10 minutes, After further images were obtained at 60 and 120 minutes, the rat was killed with anaesthesia and samples of organs (blood, heart, lung, liver, spleen, kidney, muscle, GI tract) were weighed and counted in either a well-type gamma counter or in a gamma dose calibrator. Dose calculations were made based on the assumption that rats weighed 200 g and that the blood volume constituted 8% body weight. All results were corrected for the residual dose in the tail.
"GI tract excretion (in words) (in comparison with the N2S2 reference chelator, rats, i.v.)",GI tract accumulation/localization (share of the dose),accumulation in the kidney,localization in urine [%],SMILES,dose remaining in the blood,"clearance from the blood (and other tissues), in words (rats, i.v.)","route of elimination (rats, i.v.)"
remarkably low,about 9%,7-14%,–,"O=C(CSC(=O)c1ccccc1)NNC(=O)NNC(=O)CSC(=O)c1ccccc1 [Example 1, N,N'-bis(S-benzoylmercaptoacetyl)-carbohydrazide]",about 14%,–,–
–,30%,7-14%,20,"N=C(NNC(=O)CSC(=O)c1ccccc1)NNC(=O)CSC(=O)c1ccccc1 [Example 2, N,N'-bis-(S-benzoylmercaptoacetyl)-1,3-diaminoguanidine hydrochloride]",about 10%,–,–
–,50%,–,25,"O=C(CNC(=O)CSC(=O)c1ccccc1)CNC(=O)CSC(=O)c1ccccc1 [Example 3, N,N'-bis-(S-benzoylmercaptoacetyl)-1,3-diaminoacetone]",3%,fastest clearance from the blood and other tissues,mainly eliminated through the liver and GI tract
